Results as given in patent US20040044264A1, “Use of ionic liquids to separate olefins, diolefins and aromatics” (NOVA Chemicals (International) S.A., priority 2002, published 2004).
Where two headings read alike, the source gives them in different places. Marks after values point to notes of the source that are not given here.

Assay: Hydrocarbon solubility in ionic liquid (volume change of hydrocarbon phase in graduated flask)
Experimental: The testing apparatus consisted of a flat-bottomed florence flask with a graduated neck. The flask was charged with 75 mL of bmim^+BF4^−, the level being recorded. A known quantity of C5 hydrocarbon was then added to the flask and the flask was sealed. The overall liquid level and the location of the liquid-liquid interfacial meniscus were recorded. The mixture was then agitated to contact the two liquids and the two phases were allowed to separate. The locations of all meniscuses were then recorded. Agitation and phase separation was then repeated until the liquid levels remained unchanged. The volume change of the hydrocarbon phase corresponds to the quantity of hydrocarbon dissolved in the ionic liquid. The testing was conducted at ambient temperature.
The procedure described in Example 1 was performed instead with ethylcyclohexane, ethylbenzene, and styrene. The ionic liquid used was 1-butyl-3-methylimidazolium tetrafluoroborate.

[1] = in bmim+ BF4- ionic liquid containing 1.69 M AgBF4
[2] = in bmim+ BF4- ionic liquid containing 1.69 M AgBF4, ambient temperature

Structure (SMILES): CCc1ccccc1 [Ethylbenzene]
- Solubility (mol C8/L ionic liquid) [1]: 7.55 mol C8/L ionic liquid
- Solubility (mol C8/mol Ag+) [1]: 4.47 mol C8/mol Ag+

Structure (SMILES): CCC1CCCCC1 [Ethylcyclohexane]
- Solubility (mol C8/L ionic liquid): 0.10 mol C8/L ionic liquid
- Solubility (mol C8/mol Ag+): 0.06 mol C8/mol Ag+

Structure (SMILES): CCC(C)C [Isopentane]
- Solubility (mol C5/L ionic liquid): 0.044 mol C5/L ionic liquid
- Solubility (mol C5/mol Ag+): 0.026 mol C5/mol Ag+

Structure (SMILES): C=CC(=C)C [Isoprene]
- Solubility (mol C5/L ionic liquid) [2]: 1.132 mol C5/L ionic liquid
- Solubility (mol C5/mol Ag+) [2]: 0.670 mol C5/mol Ag+

Structure (SMILES): C=Cc1ccccc1 [Styrene]
- Solubility (mol C8/L ionic liquid) [1]: > 7.01* mol C8/L ionic liquid
- Solubility (mol C8/mol Ag+) [1]: 4.15* mol C8/mol Ag+
